Results: paper PMC9736344, “Discovery of a Novel Bloom’s Syndrome Protein (BLM) Inhibitor Suppressing Growth and Metastasis of Prostate Cancer” (International Journal of Molecular Sciences, 2022)

biological target: T1, Bloom's syndrome protein (BLM) helicase (Homo sapiens, UniProt P54132); assay: fluorescence polarization DNA-binding and unwinding assays, EMSA, malachite green ATPase assay with purified BLM642-1290; CD spectral change; format: biochemical; conditions: not given
T1 construct: BLM 642-1290
T1 sequence (P54132 642-1290): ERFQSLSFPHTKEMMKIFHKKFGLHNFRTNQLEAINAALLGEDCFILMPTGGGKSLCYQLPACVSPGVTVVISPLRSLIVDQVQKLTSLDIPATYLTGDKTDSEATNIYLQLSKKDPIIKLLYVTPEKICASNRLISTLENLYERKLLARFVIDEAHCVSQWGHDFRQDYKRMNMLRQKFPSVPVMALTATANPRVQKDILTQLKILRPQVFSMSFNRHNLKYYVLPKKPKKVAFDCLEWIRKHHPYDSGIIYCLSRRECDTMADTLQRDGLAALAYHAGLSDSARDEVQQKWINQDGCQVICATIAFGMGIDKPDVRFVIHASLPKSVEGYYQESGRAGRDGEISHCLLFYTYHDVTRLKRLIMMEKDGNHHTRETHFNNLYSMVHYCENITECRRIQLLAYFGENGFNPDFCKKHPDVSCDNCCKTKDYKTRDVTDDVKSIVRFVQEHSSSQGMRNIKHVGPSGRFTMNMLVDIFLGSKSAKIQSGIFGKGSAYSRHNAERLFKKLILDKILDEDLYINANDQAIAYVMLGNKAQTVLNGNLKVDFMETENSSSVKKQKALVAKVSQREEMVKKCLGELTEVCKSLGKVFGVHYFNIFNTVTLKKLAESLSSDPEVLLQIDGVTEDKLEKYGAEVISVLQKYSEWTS

SMILES	IC50
Cc1cc(C2(c3ccc(O)c(C)c3)OC(=O)c3ccccc32)ccc1O [AO/854, AO/854/43447428]	< 10 µM

biological target: T1, Bloom's syndrome protein (BLM) helicase; assay: biochemical; set-up: fluorescence polarization; displacement of fluorescein-dsDNA bound to BLM642-1290; relative DNA binding activity; conditions: dsDNA binding; read-out: % of control remaining
Procedure: First, fluorescein-labeled dsDNA (2 nM) was added into a reaction buffer (20 mM Tris, 25 mM NaCl, 3 mM MgCl2, 0.1 mM DTT, pH 7.9) to detect the fluorescence anisotropy until it was stable. Then, 500 nM BLM^642−1290 was added to equilibrate the DNA substrate, and the fluorescence anisotropy value was then detected. Finally, small molecules with a concentration of 10 μM were added, and the fluorescence anisotropy value was detected until it was stable. The total reaction volume was adjusted to 150 μL by adjusting with ddH2O volume. The ability of AO/854 to inhibit the ability of the BLM^642−1290 to bind to dsDNA and ssDNA was also assessed using a fluorescence polarization assay. The method used was similar to that described above, except different concentrations of AO/854 were added to the reaction. By using the same protocol, we detected AO/854 affecting DNA unwinding of BLM^642−1290. The 0–50 μM concentrations of AO/854 were added to the reaction. In the final step, 0.2 mM of ATP was added to the reaction. The fluorescence anisotropy value was detected until it was stable. The inhibiting ratio of BLM on DNA binding activity and DNA unwinding activity was determined. By using high-throughput virtual and protein-based screening assays, we discovered an isobenzofuranone compound with the desired properties. The flow chart of our work is as follows (Figure 2A). Before the first round of docking using the Autodock Vina, an optimized database (approximately 200,000 compounds) was achieved by filtering using Lipinski’s rule of five and Veber rules and removing duplicate molecules from the Specs database (Figure S1). The top 1000 compounds from the previous step were docked with Autodock (Figure S2). The top 30 small molecules (Table S1) obtained through virtual screening were dissolved in DMSO and prepared into mother liquor at a concentration of 20 mM. We purified a truncated structure of BLM that retained helicase activity in vitro (Figure S3), selected a fluorescein-labeled dsDNA as a substrate, and used a fluorescence polarization assay to determine if the promising compounds disrupted the binding between BLM and DNA.

SMILES	remaining activity at 10 µM
Cc1cc(C2(c3ccc(O)c(C)c3)OC(=O)c3ccccc32)ccc1O [compound 2]	31.5%
O=[N+]([O-])c1ccc(S(=O)(=O)Oc2ccc(C3(c4ccc(OS(=O)(=O)c5ccc([N+](=O)[O-])cc5)cc4)c4ccccc4-c4ccccc43)cc2)cc1 [compound 1]	98.9%
Cc1ccc(-c2csc3nc(SCC(=O)Nc4cccc5ccccc45)n(-c4ccccc4)c(=O)c23)o1 [compound 3]	94.9%

Second part, the compound after the results:

remaining activity at 10 µM	SMILES
96.6%	O=C1c2cc(S(=O)(=O)Nc3cccc4ccccc34)ccc2-c2ccc(S(=O)(=O)Nc3cccc4ccccc34)cc21 [compound 20]
103%	CCCCC(OC(=O)c1ccc(N2C(=O)C3C4c5ccccc5C(c5ccccc54)C3C2=O)cc1)C(=O)c1ccc(-c2ccccc2)cc1 (centres unmarked) [compound 10]
97.3%	CC(=O)Nc1ccc(N2C(=O)c3ccc(C(=O)c4ccc5c(c4)C(=O)N(c4ccc(NC(C)=O)cc4)C5=O)cc3C2=O)cc1 [compound 28]
93.9%	Cc1ccc(-c2csc3nc(SCC(=O)Nc4ccc(C)c(C)c4)n(-c4ccccc4)c(=O)c23)o1 [compound 19]
